# The supplement of paper PMC10307832
# Columns and labels:
# Test in all cases: relative viability (nuclei count vs DMSO), 5 days (fraction); higher = more cells survive
# [1] = compound: C1CC2=C(C1)C=C(C=C2)OC3=NC(=C4C(=N3)N(C=N4)CC5=CC=C(C=C5)C6=CC=CC=C6)N[C@@H](CC7=CC=CC=C7)CO [QS11] + CC(=O)c1c(C)c2cnc(Nc3ccc(N4CCNCC4)cn3)nc2n(C2CCCC2)c1=O [Palbociclib] (partner 0.5 µM)
# Method in brief: (§1)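 Lung cancer cell lines were pin-tool dosed in 1536-well plates on the day after seeding, with either a lone drug or a fixed anchor-drug dose plus five library-drug doses (not always all listed) in √10 steps. Nuclei were counted on 4× images after 5 days. Relative viability is the ratio of treated-well to vehicle-well nuclei counts, with each value a median of duplicate plates.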
# [2] = compound: C1CC2=C(C1)C=C(C=C2)OC3=NC(=C4C(=N3)N(C=N4)CC5=CC=C(C=C5)C6=CC=CC=C6)N[C@@H](CC7=CC=CC=C7)CO [QS11] + CC(C)C[C@H](NC(=O)[C@H](Cc1ccccc1)NC(=O)c1cnccn1)B(O)O [Bortezomib] (partner 0.002 µM)
# Method in brief: as §1
# [3] = compound: CC1=C(C=C(C=C1)NC(=O)C2=CC(=CC=C2)C(C)(C)C#N)NC3=CC4=C(C=C3)N=CN(C4=O)C [AZ628] + C[C@]1(O)C[C@@H](c2nc(-c3ccc4ccc(-c5ccccc5)nc4c3)c3c(N)nccn32)C1 [Linsitinib] (partner 1 µM)
# Method in brief: as §1
# [4] = compound: C[As](C)SC[C@H](NC(=O)CC[C@H](N)C(=O)O)C(=O)NCC(=O)O [Darinaparsin] + COc1cccc2cc(-c3nc([C@H]4CC[C@H](C(=O)O)CC4)n4ncnc(N)c34)[nH]c12 [OSI-027] (partner 0.5 µM)
# Method in brief: as §1
Cell Line,relative viability ([1]; first compound 0.08 µM),relative viability ([1]; first compound 0.253 µM),relative viability ([1]; first compound 0.8 µM),relative viability ([1]; first compound 2.53 µM),relative viability ([1]; first compound 8 µM),relative viability ([2]; first compound 0.08 µM),relative viability ([2]; first compound 0.253 µM),relative viability ([2]; first compound 0.8 µM),relative viability ([2]; first compound 2.53 µM),relative viability ([2]; first compound 8 µM),relative viability ([3]; first compound 0.08 µM),relative viability ([3]; first compound 0.253 µM),relative viability ([3]; first compound 0.8 µM),relative viability ([3]; first compound 2.53 µM),relative viability ([3]; first compound 8 µM),relative viability ([4]; first compound 0.08 µM),relative viability ([4]; first compound 0.8 µM),relative viability ([4]; first compound 8 µM),relative viability ([4]; first compound 2.53 µM)
201T,0.369,0.406,0.345,0.395,0.277,1.12,1.09,0.921,1.16,0.961,1.06,0.978,1.07,1,0.998,0.963,0.701,0.93,
A549,,,,,,,,,,,0.571,0.542,0.469,0.606,0.39,,,,
A-427,0.553,0.582,,0.551,0.574,0.852,0.96,,0.999,0.858,1,0.898,0.839,0.857,0.496,0.424,0.445,0.582,0.466
ABC-1,0.805,0.782,0.652,0.64,0.5,0.309,0.399,0.319,0.324,0.278,0.857,0.81,0.854,0.719,0.799,0.489,0.424,0.444,0.453
BEN,0.479,0.481,0.501,0.52,0.502,0.635,1.01,1.07,0.916,1.07,1.1,0.864,0.793,0.903,0.772,0.312,0.306,0.299,0.281
CAL-12T,0.431,0.568,0.409,0.499,0.264,0.893,0.865,0.809,1.07,1.03,0.788,0.677,0.585,0.679,0.357,0.756,0.539,0.569,0.737
COR-L23,0.319,0.298,0.274,0.196,0.181,1.08,1.13,0.86,0.942,0.765,1.05,0.886,0.986,0.81,0.492,0.975,0.645,0.838,0.785
COR-L 105,0.423,0.437,0.417,0.352,0.442,0.78,0.814,0.772,0.717,0.519,0.933,0.897,0.934,0.857,0.651,0.625,0.704,0.559,0.486
Calu-6,,,,,,1.12,1.07,0.953,1.06,0.817,1.05,0.859,0.401,0.673,0.153,,,,
ChaGo-K-1,,0.955,1.02,1.02,1.07,,1.01,1.17,1.25,1.09,,,,,,0.612,0.518,0.715,0.516
EBC-1,,,,,,0.535,0.444,0.479,0.408,0.271,0.87,0.843,0.999,0.773,0.885,,,,
EKVX,0.401,0.375,0.33,0.284,0.391,0.941,1.09,,1.07,1.1,1.18,0.922,1,1.03,0.824,0.723,0.604,0.833,0.752
EMC-BAC-2,0.515,0.545,0.43,0.443,0.406,1.06,1.05,0.941,0.985,0.677,0.77,0.723,0.782,0.744,0.762,0.364,0.315,0.409,0.405
EPLC-272H,,0.315,0.31,0.305,0.31,0.954,0.947,0.81,0.946,0.798,1.26,1.13,1.12,1.08,0.834,,0.285,0.321,0.243
H3255,0.327,0.363,0.301,0.31,0.298,0.813,0.782,,0.761,0.746,0.965,0.859,0.965,0.968,0.737,0.607,0.543,0.547,0.618
HARA,0.256,0.212,0.186,0.252,0.259,1.25,1.19,,1.05,1.24,0.774,0.847,0.888,0.934,0.309,0.68,0.502,0.572,0.54
HCC-15,0.765,0.808,0.579,0.701,0.542,1.06,1.16,,1.03,0.982,0.918,0.799,0.704,0.695,0.414,0.737,0.59,0.707,0.694
HCC-44,1.07,0.998,0.732,0.901,0.866,0.885,0.76,0.681,0.766,0.697,0.701,0.646,0.672,0.678,0.666,0.511,0.514,0.378,0.454
HCC-78,0.462,0.531,0.464,0.457,0.358,0.478,0.484,0.457,0.486,0.544,0.704,0.524,0.479,0.499,0.518,0.375,0.394,0.372,0.379
HCC-366,0.433,0.454,,0.162,0.0973,1.28,0.688,,0.808,0.318,0.551,0.454,0.426,0.543,0.114,1.23,1.1,1.62,0.955
HCC-827,0.527,0.501,0.445,0.599,0.479,1.06,1.09,0.937,0.962,1.04,0.979,1.01,1.01,0.973,0.918,0.705,0.837,0.766,0.626
HOP-62,0.471,0.517,0.455,0.369,0.281,0.718,1.01,0.728,0.594,0.652,1.09,0.919,1.06,1.17,0.535,0.958,0.852,0.855,0.694

Cell Line,relative viability ([1]; first compound 0.08 µM),relative viability ([1]; first compound 0.253 µM),relative viability ([1]; first compound 0.8 µM),relative viability ([1]; first compound 2.53 µM),relative viability ([1]; first compound 8 µM),relative viability ([2]; first compound 0.08 µM),relative viability ([2]; first compound 0.253 µM),relative viability ([2]; first compound 0.8 µM),relative viability ([2]; first compound 2.53 µM),relative viability ([2]; first compound 8 µM),relative viability ([3]; first compound 0.08 µM),relative viability ([3]; first compound 0.253 µM),relative viability ([3]; first compound 0.8 µM),relative viability ([3]; first compound 2.53 µM),relative viability ([3]; first compound 8 µM),relative viability ([4]; first compound 0.08 µM),relative viability ([4]; first compound 0.8 µM),relative viability ([4]; first compound 8 µM),relative viability ([4]; first compound 2.53 µM)
IA-LM,,,,,,0.978,0.856,0.677,0.665,0.328,0.761,0.711,0.509,0.353,0.252,,,,
LC-2-ad,0.512,0.47,0.405,0.451,0.501,0.987,1.03,0.651,0.962,1.1,0.882,0.829,0.883,0.832,0.486,0.877,0.762,0.759,0.67
LCLC-103H,0.498,0.506,,0.535,0.481,1.04,1.1,0.811,1.07,0.891,1.02,1.15,1.15,1.07,1.04,0.481,0.465,0.531,0.414
LK-2,0.723,0.826,0.777,0.507,0.705,,,,,,0.694,0.458,0.437,0.527,0.235,0.188,0.19,0.199,0.181
LOU-NH91,0.527,0.536,0.513,0.58,0.629,0.494,0.491,0.417,0.488,0.437,0.962,1,1.07,0.964,0.66,0.74,0.689,0.79,0.711
NCI-H358,0.132,0.128,0.134,0.159,0.118,,,,,,0.644,0.622,0.66,0.582,0.398,0.988,0.76,0.793,0.846
NCI-H522,0.766,0.841,0.987,1.15,1.19,,,,,,,,,,,0.617,0.644,0.712,0.623
NCI-H596,,,,,,,0.807,1.15,0.869,1.06,1.03,1.12,0.982,1.1,1.22,0.766,0.845,0.762,0.647
NCI-H1299,,,,,,1.03,1.06,0.915,0.969,0.841,0.987,1.04,0.993,0.91,0.579,,,,
NCI-H1395,0.596,0.654,0.628,0.664,0.666,,,,,,1.21,1.18,1.23,1.07,1.05,0.744,0.636,0.628,0.586
NCI-H1563,,,,,,0.822,0.825,0.853,0.769,0.722,1.3,1.18,1.23,1.29,1.29,0.752,0.735,0.708,0.71
NCI-H1623,,,,,,,,,,,,,,,,0.429,0.496,0.393,0.471
NCI-H1648,0.279,0.265,0.331,0.294,0.294,,,,,,,,,,,0.297,0.237,0.269,
NCI-H1650,0.354,0.251,0.271,0.355,0.245,0.183,0.215,0.18,0.197,0.186,,,,,,0.567,0.612,0.757,0.504
NCI-H1703,,,,,,0.323,0.376,0.254,0.236,0.203,0.404,0.328,0.219,0.209,0.201,,,,
NCI-H1793,0.335,0.274,0.29,0.404,0.491,,,,,,1.32,1.11,1.09,0.687,0.602,0.329,0.254,0.309,0.27
NCI-H1944,0.312,0.344,,0.275,0.254,,,,,,1.21,1.14,0.987,0.876,0.703,0.413,0.372,0.437,0.399
NCI-H2170,0.391,0.472,0.291,0.365,0.371,,,,,,,,,,,0.734,0.725,0.727,0.697
NCI-H2342,0.52,0.541,0.515,0.474,0.491,,,,,,,,,,,0.592,0.593,0.654,0.558
SK-MES-1,0.322,0.285,0.268,0.311,0.295,,,,,,0.98,1.06,0.939,1.03,0.637,0.627,0.743,0.819,0.561
SW 900,0.588,0.593,0.456,0.481,0.425,,,,,,,,,,,0.851,0.547,0.756,0.72
